Results: patent EP4230621A1, “SUBSTITUTED N-BENZOIC ACID URACILS, THEIR SALTS AND USE OF SAID COMPOUNDS AS HERBICIDAL AGENTS” (Bayer AG, priority 2022, dated 2023)

Tests used:
Format in all cases: in vivo
[1] = system: Pharbitis purpurea; test: Post-emergence herbicidal action against PHBPU (greenhouse pot test)
Description: (§1) Die folgenden Abkürzungen werden für die in den folgenden Tabellen aufgeführten Kultur- und Schadpflanzen verwendet: ABUTH: Abutilon theophrasti ALOMY: Alopecurus myosuroides AMARE: Amaranthus retroflexus BRSNS: Brassica napus DIGSA: Digitaria sanguinalis ECHCG: Echinochloa crus-galli GLXMA: Glycine max KCHSC: Kochia scoparia LOLRI: Lolium rigidum MATIN: Matricaria inodora ORYZA: Oryza sativa PHPBU: Pharbitis purpurea POLCO: Polygonum convolvulus SETVI: Setaria viridis VERPE: Veronica persica VIOTR: Viola tricolor TRZAS: Triticum aestivum ZEAMX: Zea mays
(§2) Samen von mono- bzw. dikotylen Unkrautpflanzen wurden in Kunststoff- oder Holzfasertöpfen in sandigem Lehmboden ausgelegt, mit Erde abgedeckt und im Gewächshaus unter kontrollierten Wachstumsbedingungen angezogen. 2 bis 3 Wochen nach der Aussaat wurden die Versuchspflanzen im Einblattstadium behandelt. Die in Form von benetzbaren Pulvern (WP) oder als Emulsionskonzentrate (EC) formulierten erfindungsgemäßen Verbindungen wurden dann als wässrige Suspension bzw. Emulsion unter Zusatz von 0,5% Additiv mit einer Wasseraufwandmenge von umgerechnet 600 1/ha auf die grünen Pflanzenteile gesprüht. Nach ca. 3 Wochen Standzeit der Versuchspflanzen im Gewächshaus, unter optimalen Wachstumsbedingungen, wurde die Wirkung der Präparate visuell im Vergleich zu unbehandelten Kontrollen bonitiert. Beispielsweise bedeutet 100% Wirkung = Pflanzen sind abgestorben, 0% Wirkung = wie Kontrollpflanzen.
(§3) In den nachstehenden Tabellen A1 bis A11 sind die Wirkungen ausgewählter Verbindungen der allgemeinen Formel (I) gemäß der Tabelle 1 auf verschiedene Schadpflanzen und einer Aufwandmenge entsprechend 80 g/ha und niedriger, die gemäß zuvor genannter Versuchsvorschrift erhalten wurden, dargestellt. Tabelle A1a: Nachauflaufwirkung bei 5 g/ha gegen ABUTH in %

[2] = system: Amaranthus retroflexus; test: Post-emergence herbicidal action against AMARE (greenhouse pot test); settings: visual rating after ca. 3 weeks vs untreated controls (100% = plants dead, 0% = like controls)
Description: as §1, §2, §3

[3] = system: Alopecurus myosuroides; test: Post-emergence herbicidal action against ALOMY (greenhouse pot test); settings: visual rating after ca. 3 weeks vs untreated controls (100% = plants dead, 0% = like controls)
Description: as §1, §2, §3

[4] = system: Triticum aestivum; test: Post-emergence action on crop plants, TRZAS (greenhouse pot test); settings: crop plant
Description: as §1
as §2, with “Kulturpflanzen” for “Unkrautpflanzen”
as §3, with “B1” for “A1”, “B3” for “A11”, “Kulturpflanzen” for “Schadpflanzen”, “20” for “80”, “B1a:” for “A1a:”, “ZEAMX” for “ABUTH”

[5] = system: Oryza sativa; test: Post-emergence action on crop plants, ORYZA (greenhouse pot test); settings: 5 g/ha
Description: as §1
as §2, with “Kulturpflanzen” for “Unkrautpflanzen”
as §3, with “B1” for “A1”, “B3” for “A11”, “Kulturpflanzen” for “Schadpflanzen”, “20” for “80”, “B1a:” for “A1a:”, “ZEAMX” for “ABUTH”

[6] = system: Veronica persica; test: Post-emergence herbicidal action against VERPE (greenhouse pot test)
Description: as §1, §2, §3

[7] = system: Polygonum convolvulus; test: Post-emergence herbicidal action against POLCO (greenhouse pot test)
Description: as §1, §2, §3

[8] = system: Digitaria sanguinalis; test: Post-emergence herbicidal action against DIGSA (greenhouse pot test); settings: visual rating after ca. 3 weeks vs untreated controls (100% = plants dead, 0% = like controls)
Description: as §1, §2, §3

[9] = system: Setaria viridis; test: Post-emergence herbicidal action against SETVI (greenhouse pot test)
Description: as §1, §2, §3

[10] = system: Abutilon theophrasti; test: Post-emergence herbicidal action against ABUTH (greenhouse pot test); settings: visual rating after ca. 3 weeks vs untreated controls (100% = plants dead, 0% = like controls)
Description: as §1, §2, §3

[11] = system: Lolium rigidum; test: Post-emergence herbicidal action against LOLRI (greenhouse pot test); settings: visual rating after ca. 3 weeks vs untreated controls (100% = plants dead, 0% = like controls)
Description: as §1, §2, §3

[12] = system: Zea mays; test: Post-emergence action on crop plants, ZEAMX (greenhouse pot test); settings: 5 g/ha, crop plant
Description: as §1
as §2, with “Kulturpflanzen” for “Unkrautpflanzen”
as §3, with “B1” for “A1”, “B3” for “A11”, “Kulturpflanzen” for “Schadpflanzen”, “20” for “80”, “B1a:” for “A1a:”, “ZEAMX” for “ABUTH”

[13] = system: Viola tricolor; test: Post-emergence herbicidal action against VIOTR (greenhouse pot test)
Description: as §1, §2, §3

[14] = system: Matricaria inodora; test: Post-emergence herbicidal action against MATIN (greenhouse pot test); settings: for Nachauflaufwirkung gegen MATIN: visual rating after ca. 3 weeks vs untreated controls (100% = plants dead, 0% = like controls); for Nachauflaufwirkung gegen MATIN in %: 80 g/ha
Description: as §1, §2, §3

Cn1c(C(F)(F)F)cc(=O)n(-c2cc(C(=O)OC(C)(C)C(=O)OCc3ccccn3)c(Cl)cc2F)c1=O [I.1-286]
10%: Nachauflaufwirkung gegen TRZAS in % ([4]; 5 g/ha)
20%: Nachauflaufwirkung gegen TRZAS in % ([4]; 20 g/ha) | Nachauflaufwirkung gegen ZEAMX in % [12]
100%: Nachauflaufwirkung gegen PHBPU in % ([1]; 5 g/ha) | Nachauflaufwirkung gegen PHBPU in % ([1]; 20 g/ha) | Nachauflaufwirkung gegen PHBPU in % ([1]; 80 g/ha) | Nachauflaufwirkung gegen AMARE ([2]; 5 g/ha) | Nachauflaufwirkung gegen AMARE ([2]; 20 g/ha) | Nachauflaufwirkung gegen AMARE ([2]; 80 g/ha) | Nachauflaufwirkung gegen ALOMY ([3]; 20 g/ha) | Nachauflaufwirkung gegen ALOMY ([3]; 80 g/ha) | Nachauflaufwirkung gegen VERPE in % ([6]; 5 g/ha) | Nachauflaufwirkung gegen VERPE in % ([6]; 20 g/ha) | Nachauflaufwirkung gegen VERPE in % ([6]; 80 g/ha) | Nachauflaufwirkung gegen POLCO in % ([7]; 5 g/ha) | Nachauflaufwirkung gegen POLCO in % ([7]; 20 g/ha) | Nachauflaufwirkung gegen POLCO in % ([7]; 80 g/ha) | Nachauflaufwirkung gegen DIGSA ([8]; 5 g/ha) | Nachauflaufwirkung gegen DIGSA ([8]; 20 g/ha) | Nachauflaufwirkung gegen DIGSA ([8]; 80 g/ha) | Nachauflaufwirkung gegen SETVI in % ([9]; 5 g/ha) | Nachauflaufwirkung gegen SETVI in % ([9]; 20 g/ha) | Nachauflaufwirkung gegen SETVI in % ([9]; 80 g/ha) | Nachauflaufwirkung gegen ABUTH ([10]; 5 g/ha) | Nachauflaufwirkung gegen ABUTH ([10]; 20 g/ha) | Nachauflaufwirkung gegen ABUTH ([10]; 80 g/ha) | Nachauflaufwirkung gegen LOLRI ([11]; 80 g/ha) | Nachauflaufwirkung gegen VIOTR in % ([13]; 5 g/ha) | Nachauflaufwirkung gegen VIOTR in % ([13]; 20 g/ha) | Nachauflaufwirkung gegen VIOTR in % ([13]; 80 g/ha) | Nachauflaufwirkung gegen MATIN ([14]; 5 g/ha) | Nachauflaufwirkung gegen MATIN ([14]; 20 g/ha) | Nachauflaufwirkung gegen MATIN in % [14]
0%: Nachauflaufwirkung gegen ORYZA in % [5]
90%: Nachauflaufwirkung gegen LOLRI ([11]; 20 g/ha)

CC(C)=NOC(=O)C(C)(C)OC(=O)c1cc(-n2c(=O)cc(C(F)(F)F)n(C)c2=O)c(F)cc1Cl [I.1-476]
20%: Nachauflaufwirkung gegen ZEAMX in % [12]
10%: Nachauflaufwirkung gegen TRZAS in % ([4]; 5 g/ha) | Nachauflaufwirkung gegen TRZAS in % ([4]; 20 g/ha)
100%: Nachauflaufwirkung gegen PHBPU in % ([1]; 5 g/ha) | Nachauflaufwirkung gegen PHBPU in % ([1]; 20 g/ha) | Nachauflaufwirkung gegen PHBPU in % ([1]; 80 g/ha) | Nachauflaufwirkung gegen AMARE ([2]; 5 g/ha) | Nachauflaufwirkung gegen AMARE ([2]; 20 g/ha) | Nachauflaufwirkung gegen AMARE ([2]; 80 g/ha) | Nachauflaufwirkung gegen ALOMY ([3]; 20 g/ha) | Nachauflaufwirkung gegen ALOMY ([3]; 80 g/ha) | Nachauflaufwirkung gegen VERPE in % ([6]; 5 g/ha) | Nachauflaufwirkung gegen VERPE in % ([6]; 20 g/ha) | Nachauflaufwirkung gegen VERPE in % ([6]; 80 g/ha) | Nachauflaufwirkung gegen POLCO in % ([7]; 5 g/ha) | Nachauflaufwirkung gegen POLCO in % ([7]; 20 g/ha) | Nachauflaufwirkung gegen POLCO in % ([7]; 80 g/ha) | Nachauflaufwirkung gegen DIGSA ([8]; 5 g/ha) | Nachauflaufwirkung gegen DIGSA ([8]; 20 g/ha) | Nachauflaufwirkung gegen DIGSA ([8]; 80 g/ha) | Nachauflaufwirkung gegen SETVI in % ([9]; 5 g/ha) | Nachauflaufwirkung gegen SETVI in % ([9]; 20 g/ha) | Nachauflaufwirkung gegen SETVI in % ([9]; 80 g/ha) | Nachauflaufwirkung gegen ABUTH ([10]; 5 g/ha) | Nachauflaufwirkung gegen ABUTH ([10]; 20 g/ha) | Nachauflaufwirkung gegen ABUTH ([10]; 80 g/ha) | Nachauflaufwirkung gegen LOLRI ([11]; 80 g/ha) | Nachauflaufwirkung gegen VIOTR in % ([13]; 5 g/ha) | Nachauflaufwirkung gegen VIOTR in % ([13]; 20 g/ha) | Nachauflaufwirkung gegen VIOTR in % ([13]; 80 g/ha) | Nachauflaufwirkung gegen MATIN ([14]; 5 g/ha) | Nachauflaufwirkung gegen MATIN ([14]; 20 g/ha) | Nachauflaufwirkung gegen MATIN in % [14]

COCCOC(=O)C(C)(C)OC(=O)c1cc(-n2c(=O)cc(C(F)(F)F)n(C)c2=O)c(F)cc1Cl [I.1-1]
80%: Nachauflaufwirkung gegen PHBPU in % ([1]; 5 g/ha)
10%: Nachauflaufwirkung gegen TRZAS in % ([4]; 5 g/ha) | Nachauflaufwirkung gegen ZEAMX in % [12]
100%: Nachauflaufwirkung gegen PHBPU in % ([1]; 20 g/ha) | Nachauflaufwirkung gegen PHBPU in % ([1]; 80 g/ha) | Nachauflaufwirkung gegen AMARE ([2]; 5 g/ha) | Nachauflaufwirkung gegen AMARE ([2]; 20 g/ha) | Nachauflaufwirkung gegen AMARE ([2]; 80 g/ha) | Nachauflaufwirkung gegen ALOMY ([3]; 20 g/ha) | Nachauflaufwirkung gegen ALOMY ([3]; 80 g/ha) | Nachauflaufwirkung gegen VERPE in % ([6]; 5 g/ha) | Nachauflaufwirkung gegen VERPE in % ([6]; 20 g/ha) | Nachauflaufwirkung gegen VERPE in % ([6]; 80 g/ha) | Nachauflaufwirkung gegen POLCO in % ([7]; 5 g/ha) | Nachauflaufwirkung gegen POLCO in % ([7]; 20 g/ha) | Nachauflaufwirkung gegen POLCO in % ([7]; 80 g/ha) | Nachauflaufwirkung gegen DIGSA ([8]; 5 g/ha) | Nachauflaufwirkung gegen DIGSA ([8]; 20 g/ha) | Nachauflaufwirkung gegen DIGSA ([8]; 80 g/ha) | Nachauflaufwirkung gegen SETVI in % ([9]; 5 g/ha) | Nachauflaufwirkung gegen SETVI in % ([9]; 20 g/ha) | Nachauflaufwirkung gegen SETVI in % ([9]; 80 g/ha) | Nachauflaufwirkung gegen ABUTH ([10]; 5 g/ha) | Nachauflaufwirkung gegen ABUTH ([10]; 20 g/ha) | Nachauflaufwirkung gegen ABUTH ([10]; 80 g/ha) | Nachauflaufwirkung gegen LOLRI ([11]; 20 g/ha) | Nachauflaufwirkung gegen LOLRI ([11]; 80 g/ha) | Nachauflaufwirkung gegen VIOTR in % ([13]; 5 g/ha) | Nachauflaufwirkung gegen VIOTR in % ([13]; 20 g/ha) | Nachauflaufwirkung gegen VIOTR in % ([13]; 80 g/ha) | Nachauflaufwirkung gegen MATIN ([14]; 5 g/ha) | Nachauflaufwirkung gegen MATIN ([14]; 20 g/ha) | Nachauflaufwirkung gegen MATIN in % [14]
20%: Nachauflaufwirkung gegen ORYZA in % [5]

Cn1c(C(F)(F)F)cc(=O)n(-c2cc(C(=O)OC(C)(C)C(=O)OCC#N)c(Cl)cc2F)c1=O [I.1-176, 1-(Cyanmethoxy)-2-methyl-1-oxopropan-2-yl-2-chlor-4-fluor-5-[3-methyl-2,6-dioxo-4-(trifluormethyl)-3,6-dihydropyrimidin-1(2H)-yl]benzoat]
100%: Nachauflaufwirkung gegen PHBPU in % ([1]; 5 g/ha) | Nachauflaufwirkung gegen PHBPU in % ([1]; 20 g/ha) | Nachauflaufwirkung gegen PHBPU in % ([1]; 80 g/ha) | Nachauflaufwirkung gegen AMARE ([2]; 5 g/ha) | Nachauflaufwirkung gegen AMARE ([2]; 20 g/ha) | Nachauflaufwirkung gegen AMARE ([2]; 80 g/ha) | Nachauflaufwirkung gegen ALOMY ([3]; 80 g/ha) | Nachauflaufwirkung gegen VERPE in % ([6]; 5 g/ha) | Nachauflaufwirkung gegen VERPE in % ([6]; 20 g/ha) | Nachauflaufwirkung gegen VERPE in % ([6]; 80 g/ha) | Nachauflaufwirkung gegen POLCO in % ([7]; 5 g/ha) | Nachauflaufwirkung gegen POLCO in % ([7]; 20 g/ha) | Nachauflaufwirkung gegen POLCO in % ([7]; 80 g/ha) | Nachauflaufwirkung gegen DIGSA ([8]; 5 g/ha) | Nachauflaufwirkung gegen DIGSA ([8]; 20 g/ha) | Nachauflaufwirkung gegen DIGSA ([8]; 80 g/ha) | Nachauflaufwirkung gegen SETVI in % ([9]; 5 g/ha) | Nachauflaufwirkung gegen SETVI in % ([9]; 20 g/ha) | Nachauflaufwirkung gegen SETVI in % ([9]; 80 g/ha (dose column; title A9c prints 20 g/ha)) | Nachauflaufwirkung gegen ABUTH ([10]; 5 g/ha) | Nachauflaufwirkung gegen ABUTH ([10]; 20 g/ha) | Nachauflaufwirkung gegen ABUTH ([10]; 80 g/ha) | Nachauflaufwirkung gegen VIOTR in % ([13]; 5 g/ha) | Nachauflaufwirkung gegen VIOTR in % ([13]; 20 g/ha) | Nachauflaufwirkung gegen VIOTR in % ([13]; 80 g/ha) | Nachauflaufwirkung gegen MATIN ([14]; 5 g/ha) | Nachauflaufwirkung gegen MATIN ([14]; 20 g/ha) | Nachauflaufwirkung gegen MATIN in % [14]
80%: Nachauflaufwirkung gegen ALOMY ([3]; 20 g/ha)
90%: Nachauflaufwirkung gegen LOLRI ([11]; 80 g/ha)
10%: Nachauflaufwirkung gegen TRZAS in % ([4]; 5 g/ha) | Nachauflaufwirkung gegen TRZAS in % ([4]; 20 g/ha)
